Measured values from patent US20240024261A1, “PHARMACEUTICAL COMPOSITION FOR IMPROVING COGNITIVE ABILITY OR ENHANCING MEMORY” (DR. RAYMOND LAB INC, priority 2020, published 2024).
“And” between values parts separate entries of the source, which are not always exact repeats. Equal values may be shown once. Where a name gives a salt, the structure may show the parent alone. Read-outs that look alike come from different tables or passages of the source.

Tests used:
ICR mouse = assay: Passive avoidance test in scopolamine-treated mice; format: in vivo; settings: scopolamine i.p., mean ± standard error
Protocol: Each material prepared in the preparation example was prepared so that each may be orally administered to 7 experimental groups in the following and Table 1.
In the following Table 1, only the excipient prepared in the preparation examples was orally administered to a normal control group and a negative control group, respectively, scopolamine was administered to the remaining experimental groups (G2-G7) other than the normal control group (G1) in the behavioral experiment of Test Example 4 to cause cognitive function decline and a memory impairment effect, and then the behavior was observed.
After the test material (drug) of Test Example 3 was administered to each experimental group during the test, a passive avoidance test was performed, and change in mouse behavior was observed.
After each of the test materials was administered to each experimental group of Table 1 of Test Example 3, the passive avoidance test was performed on day 25 by the following procedure: • a) The object was put into an unlit white room of a conditioning box for the passive avoidance test, and then was adapted for 60 seconds. • b) A guillotine door was opened simultaneously with turning on a LED light of the white room, and the object was allowed to explore a dark room for 180 seconds for adaptation. • c) On the next day (day 26) also, the above process was performed and repeated once more, and the object was adapted so that it took around 30 seconds to enter the dark room after turning on the LED light. • d) After administering the drug 1 hour before learning on day 27, 4 mL/kg of Scopolamine which was dissolved at 0.25 mg/mL in a 0.9% saline solution was intraperitoneally administered to the objects of the remaining experimental groups other than the normal control group (G1), respectively, after 30 minutes, and the objects were allowed to stand for 30 minutes in the breeding box. • e) 30 minutes after administering Scopolamine, the objects were put into the unlit white room, the guillotine door was opened simultaneously with turning on the LED light after 10 seconds. When all of the four legs of the objects entered to the dark room, the guillotine door was closed, the time spent (latency time) was measured with a timer, and electrical stimulation was given at 0.5 mA for 3 seconds.

acetylcholine = assay: Acetylcholine content in hippocampus after passive avoidance test; format: in vivo, mouse; settings: scopolamine, mean ± standard error
Protocol: (§1) On the next day of the end of the passive avoidance test, the test material was administered, and the objects were allowed to stand in a home cage for 30 minutes. Subsequently, Scopolamine was intraperitoneally administered at a dose of 1 mg/kg, and then the objects were allowed to stand in a home cage for 30 minutes.
(§2) A brain tissue was separately separated and stored at −70° C. until analysis.
A choline assay buffer (Biovision, CA, USA) was added to a hippocampal tissue of the separated brain, crushed, and then centrifuged to obtain a supernatant liquid, which was used in the test.
The amount of acetylcholine in the supernatant liquid was measured using a choline/acetylcholine quantification kit (Biovision, CA, USA).

[1] = test system: Acetylcholine esterase (AchE); format: in vivo; settings: forebrain, scopolamine, mean ± standard error
Protocol: as §1, §2
Acetylcholine esterase (AchE) activity was measured with a supernatant liquid obtained by adding a tissue protein extraction reagent (Biovision, CA, USA) to a forebrain tissue, crushing it, and centrifuging it, using an acetylcholinesterase activity assay kit (Biovision, CA, USA).

TNF-α = assay: Inflammatory cytokine TNF-α in hippocampus (ELISA); format: in vivo, mouse; settings: scopolamine, mean ± standard error
Protocol: as §1, §2
(§3) Inflammatory cytokine in a brain tissue was measured with a supernatant liquid obtained by adding a tissue protein extraction reagent (Biovision, CA, USA) to a brain tissue, crushing it, and centrifuging it, using an ELISA Kit (R&D System, MN, USA).

IL-1β = assay: Inflammatory cytokine IL-1β in hippocampus (ELISA); format: in vivo, mouse; settings: scopolamine, mean ± standard error
Protocol: as §1, §2, §3

[2] = Body weight during the test; format: in vivo, mouse; settings: mean ± standard error
Protocol: For all objects of each experimental group, when drug administration started, the body weight was measured twice a week from the start of administration until the end of the experiment, and was measured on the date of the final autopsy.

ceramide = assay: Ceramide content in brain tissue (forebrain); format: in vivo, mouse; settings: for Ceramide content, N-acyl chain length C14 / Ceramide content, N-acyl chain length C16 / Ceramide content, N-acyl chain length C18 / Ceramide content, N-acyl chain length C20 / Ceramide content, N-acyl chain length C22 / Ceramide content, N-acyl chain length C24 / Ceramide content, N-acyl chain length C24:1 / Ceramide content, N-acyl chain length C26 / Ceramide content, N-acyl chain length C26:1 / Ceramide content, Total: Neuromide 100 mg/kg oral, scopolamine
Protocol: Two types of forebrain parts of experimental groups G1, G2, and G5 in the brain tissues separated above were secured, respectively.
The ceramide contents were analyzed therefrom, and the average and the deviation thereof were calculated.
At this time, the measurement of the ceramide content was performed by confirmation and quantitative method of ceramide commonly known to a person skilled in the art.

sphingoid base = assay: Sphingoid base content in brain tissue (forebrain); format: in vivo, mouse; design: Sphingoid base content, Sphingosine (SPN) / Sphingoid base content, S1P / Sphingoid base content, Sphinganine (Sa) / Sphingoid base content, Sa1P: unit not given here; settings: for Sphingoid base content, S1P / Sphingoid base content, Sa1P / Sphingoid base content, Sphinganine (Sa) / Sphingoid base content, Sphingosine (SPN): Neuromide 100 mg/kg oral, scopolamine
Protocol: Two types of forebrain parts of the experimental groups G1, G2, and G5 in the separated brain tissue were secured, respectively, the contents of sphingoid base were analyzed, and the average and the deviation were calculated.
At this time, the measurement of contents of sphingosine (SPN), sphinganine (Sa), sphingosine-1-phosphate (S1P), and sphinganine-1-phosphate (Sa1P) which are sphingoid bases was performed by confirmation and quantitative method of sphingoid bases commonly known to a person skilled in the art.

[3] = Average of two forebrain samples
[4] = individual forebrain samples 5-2, 5-3, listed as Example 3
[5] = Donepezil 1 mg/kg oral, hydrochloride

With `CCCCCCCCCCCCCCCC(=O)NC(CO)CO` [Neuromide, N-palmitoyl serinol] the “Passive avoidance test Time taken (latency time)” value (“Passive avoidance test Time taken” for short) (ICR mouse; Neuromide 16 mg/kg oral) was 22.3 s and 22.3 ± 3.6 s, the “Passive avoidance test Time taken” value (ICR mouse; Neuromide 40 mg/kg oral) was 31 s and 31 ± 8.9 s and the “Passive avoidance test Time taken” value (ICR mouse; Neuromide 100 mg/kg oral) was 35.7 s and 35.7 ± 11.5 s. For the same molecule, the Acetylcholine (acetylcholine; Neuromide 16 mg/kg oral) was 1.1 Nmol/mg protein and 1.1 ± 0.1 Nmol/mg protein, the Acetylcholine (acetylcholine; Neuromide 40 mg/kg oral) was 1.1 Nmol/mg protein and 1.1 ± 0.3 Nmol/mg protein and the Acetylcholine (acetylcholine; Neuromide 100 mg/kg oral) was 1.5 Nmol/mg protein and 1.5 ± 0.2 Nmol/mg protein. For the same molecule, the “Acetylcholinesterase (AchE) activity” value ([1]; Neuromide 16 mg/kg oral) was 7.17 mU/mg tissue protein and 7.17 ± 1.75 mU/mg tissue protein, the “Acetylcholinesterase (AchE) activity” value ([1]; Neuromide 40 mg/kg oral) was 7.79 mU/mg tissue protein and 7.79 ± 1.93 mU/mg tissue protein and the “Acetylcholinesterase (AchE) activity” value ([1]; Neuromide 100 mg/kg oral) was 6.19 mU/mg tissue protein and 6.19 ± 1.84 mU/mg tissue protein. The TNF-α (TNF-α; Neuromide 16 mg/kg oral) was 211.5 pg/mg tissue protein and 211.5 ± 25.3 pg/mg tissue protein, the TNF-α (TNF-α; Neuromide 40 mg/kg oral) was 196.2 pg/mg tissue protein and 196.2 ± 28.4 pg/mg tissue protein and the TNF-α (TNF-α; Neuromide 100 mg/kg oral) was 189.2 pg/mg tissue protein and 189.2 ± 33 pg/mg tissue protein. The IL-1β (IL-1β; Neuromide 16 mg/kg oral) was 194.7 pg/mg tissue protein and 194.7 ± 30.6 pg/mg tissue protein, the IL-1β (IL-1β; Neuromide 40 mg/kg oral) was 188.6 pg/mg tissue protein and 188.6 ± 32.4 pg/mg tissue protein and the IL-1β (IL-1β; Neuromide 100 mg/kg oral) was 151.5 pg/mg tissue protein and 151.5 ± 24.9 pg/mg tissue protein. It also gave a Weight ([2]; Neuromide 16 mg/kg oral, day 0 after administration) of 34.9 ± 0.4 g, a Weight ([2]; Neuromide 16 mg/kg oral, day 1 after administration) of 35.1 ± 0.4 g and a Weight ([2]; Neuromide 16 mg/kg oral, day 5 after administration) of 35.9 ± 0.4 g. For the same molecule, the Weight ([2]; Neuromide 16 mg/kg oral, day 8 after administration) was 36.4 ± 0.5 g, the Weight ([2]; Neuromide 16 mg/kg oral, day 12 after administration) was 36.4 ± 0.5 g and the Weight ([2]; Neuromide 16 mg/kg oral, day 15 after administration) was 36.3 ± 0.6 g. The Weight ([2]; Neuromide 16 mg/kg oral, day 19 after administration) was 37.3 ± 0.7 g, the Weight ([2]; Neuromide 16 mg/kg oral, day 22 after administration) was 37.2 ± 1^ g and the Weight ([2]; Neuromide 16 mg/kg oral, day 26 after administration) was 37.2 ± 0.8 g. It also gave a Weight ([2]; Neuromide 16 mg/kg oral, day 29 after administration) of 37.1 ± 0.9 g, a Weight ([2]; Neuromide 40 mg/kg oral, day 0 after administration) of 34.9 ± 0.4 g and a Weight ([2]; Neuromide 40 mg/kg oral, day 1 after administration) of 35.5 ± 0.4 g. It also gave a Weight ([2]; Neuromide 40 mg/kg oral, day 5 after administration) of 36 ± 0.3 g, a Weight ([2]; Neuromide 40 mg/kg oral, day 8 after administration) of 36.7 ± 0.4 g and a Weight ([2]; Neuromide 40 mg/kg oral, day 12 after administration) of 37.2 ± 0.4 g. For the same molecule, the Weight ([2]; Neuromide 40 mg/kg oral, day 15 after administration) was 37.5 ± 0.4 g, the Weight ([2]; Neuromide 40 mg/kg oral, day 19 after administration) was 37.8 ± 0.4 g and the Weight ([2]; Neuromide 40 mg/kg oral, day 22 after administration) was 38 ± 0.4 g. It also gave a Weight ([2]; Neuromide 40 mg/kg oral, day 26 after administration) of 38.3 ± 0.4 g, a Weight ([2]; Neuromide 40 mg/kg oral, day 29 after administration) of 37.9 ± 0.5 g and a Weight ([2]; Neuromide 100 mg/kg oral, day 0 after administration) of 34.9 ± 0.4 g. It also gave a Weight ([2]; Neuromide 100 mg/kg oral, day 1 after administration) of 35.3 ± 0.5 g, a Weight ([2]; Neuromide 100 mg/kg oral, day 5 after administration) of 36.2 ± 0.5 g and a Weight ([2]; Neuromide 100 mg/kg oral, day 8 after administration) of 36.7 ± 0.7 g. It also gave a Weight ([2]; Neuromide 100 mg/kg oral, day 12 after administration) of 37.6 ± 0.5 g, a Weight ([2]; Neuromide 100 mg/kg oral, day 15 after administration) of 38 ± 0.6 g and a Weight ([2]; Neuromide 100 mg/kg oral, day 19 after administration) of 38.6 ± 0.6 g. The Weight ([2]; Neuromide 100 mg/kg oral, day 22 after administration) was 38.4 ± 0.7 g, the Weight ([2]; Neuromide 100 mg/kg oral, day 26 after administration) was 38.8 ± 0.6 g and the Weight ([2]; Neuromide 100 mg/kg oral, day 29 after administration) was 38.9 ± 0.8 g. For the same molecule, the “Ceramide content, N-acyl chain length C14” value (ceramide; [3]) was 2.71, the “Ceramide content, N-acyl chain length C16” value (ceramide; [3]) was 284.09 and the “Ceramide content, N-acyl chain length C18” value (ceramide; [3]) was 3956.61. The “Ceramide content, N-acyl chain length C20” value (ceramide; [3]) was 92.88, the “Ceramide content, N-acyl chain length C22” value (ceramide; [3]) was 51.78 and the “Ceramide content, N-acyl chain length C24” value (ceramide; [3]) was 68.30. For the same molecule, the “Ceramide content, N-acyl chain length C24:1” value (ceramide; [3]) was 453.42, the “Ceramide content, N-acyl chain length C26” value (ceramide; [3]) was 11.09 and the “Ceramide content, N-acyl chain length C26:1” value (ceramide; [3]) was 4.59. The “Ceramide content, Total” value (ceramide; [3]) was 4925.46, the ceramide synthesis amount (ceramide; forebrain, Neuromide 100 mg/kg) was “significantly increased” and the “Ceramide content, N-acyl chain length C14” value (ceramide; [4]) was 2.92 and 2.50. For the same molecule, the “Ceramide content, N-acyl chain length C16” value (ceramide; [4]) was 288.68 and 279.51, the “Ceramide content, N-acyl chain length C18” value (ceramide; [4]) was 3980.71 and 3932.52 and the “Ceramide content, N-acyl chain length C20” value (ceramide; [4]) was 94.95 and 90.81. The “Ceramide content, N-acyl chain length C22” value (ceramide; [4]) was 60.05 and 43.51, the “Ceramide content, N-acyl chain length C24” value (ceramide; [4]) was 77.31 and 59.29 and the “Ceramide content, N-acyl chain length C24:1” value (ceramide; [4]) was 498.48 and 408.35. The “Ceramide content, N-acyl chain length C26” value (ceramide; [4]) was 12.46 and 9.72, the “Ceramide content, N-acyl chain length C26:1” value (ceramide; [4]) was 4.78 and 4.40 and the “Ceramide content, Total” value (ceramide; [4]) was 5020.32 and 4830.60. The “Sphingoid base content, S1P” value (sphingoid base; [3]) was 183.74, the “Sphingoid base content, Sa1P” value (sphingoid base; [3]) was 69.57 and the “Sphingoid base content, Sphinganine (Sa)” value (sphingoid base; [3]) was 545.74. For the same molecule, the “Sphingoid base content, Sphingosine (SPN)” value (sphingoid base; [3]) was 2010.00, the “S1P increase as compared with the normal control group” value (sphingoid base; forebrain, Neuromide 100 mg/kg) was at least 20% and the “Sphingoid base content, S1P” value (sphingoid base; [4]) was 159.43 and 208.05. The “Sphingoid base content, Sa1P” value (sphingoid base; [4]) was 69.16 and 69.98, the “Sphingoid base content, Sphinganine (Sa)” value (sphingoid base; [4]) was 506.47 and 585.01 and the “Sphingoid base content, Sphingosine (SPN)” value (sphingoid base; [4]) was 1861.23 and 2158.78.

With `COc1cc2c(cc1OC)C(=O)C(CC1CCN(Cc3ccccc3)CC1)C2` (stereo not shown) [Donepezil, Donepezil hydrochloride, reference compound] the “Passive avoidance test Time taken” value (ICR mouse; [5]) was 45.6 s and 45.6 ± 14 s, the Acetylcholine (acetylcholine; [5]) was 1.8 Nmol/mg protein and 1.8 ± 0.2 Nmol/mg protein and the TNF-α (TNF-α; [5]) was 186.2 pg/mg tissue protein and 186.2 ± 30.3 pg/mg tissue protein. For the same molecule, the IL-1β (IL-1β; [5]) was 160.9 pg/mg tissue protein and 160.9 ± 23.2 pg/mg tissue protein.
